What all share (assay type): cell-based
Assay [1] deals with human PBMCs. The experiment in a line: Induction activity of compounds on TNF-α in human PBMCs (ELISA). The conditions noted are these: 24 h. How it is done: (§1) PBMC cells were treated with the compounds. The compounds of the present application were diluted with DMSO, for example, to about 15 mM. The reference compounds were diluted to 5 mg/mL and then sequentially added to cell plates. The compounds were serially 3-fold diluted to give a total of 8 concentrations and added to cell plates, with two replicate wells set for each concentration. DMSO was added to the negative control wells at 0.4 μL/well, and the reference compounds at 5 mg/mL were added to the positive control wells at 0.4 μL/well. The final concentration of DMSO was 0.2%. Frozen human PBMCs in cryopreservation tubes were quickly thawed in a 37° C. water bath and transferred into 50-mL centrifuge tubes. Pre-warmed RPMI1640 medium was gradually added, and the mixture was well mixed and centrifuged for 15 min before the supernatant was discarded. The cells were resuspended in a culture medium and then counted. The cell suspension was adjusted to 2.5×10^6 cells/mL with the culture medium. Diluted cells were added at 200 μL/500,000 cells/well in the 96-well plates containing the compounds.
The plate was then washed 3 times.
(§2) Compound activity data analysis: The OD450 values were converted to TNF-α and IFN-α contents by GraphPad Prism software analysis and fitted to give dose-response curves of the compounds. The EC50 values of the compounds were calculated.
A general note: ELISA stands for enzyme-linked immunosorbent assay.

Assay [2] deals with human PBMCs. In words: Induction activity of compounds on IFN-α in human PBMCs (ELISA). The following applies: 24 h. How it is done: as §1, §2
For assay [3], the target named is T1, hTLR7 (human Toll-like receptor 7) (Homo sapiens, UniProt Q9NYK1).
T1 construct: host or cells: HEK-Blue hTLR7 cells
T1 sequence (Q9NYK1 27-1049): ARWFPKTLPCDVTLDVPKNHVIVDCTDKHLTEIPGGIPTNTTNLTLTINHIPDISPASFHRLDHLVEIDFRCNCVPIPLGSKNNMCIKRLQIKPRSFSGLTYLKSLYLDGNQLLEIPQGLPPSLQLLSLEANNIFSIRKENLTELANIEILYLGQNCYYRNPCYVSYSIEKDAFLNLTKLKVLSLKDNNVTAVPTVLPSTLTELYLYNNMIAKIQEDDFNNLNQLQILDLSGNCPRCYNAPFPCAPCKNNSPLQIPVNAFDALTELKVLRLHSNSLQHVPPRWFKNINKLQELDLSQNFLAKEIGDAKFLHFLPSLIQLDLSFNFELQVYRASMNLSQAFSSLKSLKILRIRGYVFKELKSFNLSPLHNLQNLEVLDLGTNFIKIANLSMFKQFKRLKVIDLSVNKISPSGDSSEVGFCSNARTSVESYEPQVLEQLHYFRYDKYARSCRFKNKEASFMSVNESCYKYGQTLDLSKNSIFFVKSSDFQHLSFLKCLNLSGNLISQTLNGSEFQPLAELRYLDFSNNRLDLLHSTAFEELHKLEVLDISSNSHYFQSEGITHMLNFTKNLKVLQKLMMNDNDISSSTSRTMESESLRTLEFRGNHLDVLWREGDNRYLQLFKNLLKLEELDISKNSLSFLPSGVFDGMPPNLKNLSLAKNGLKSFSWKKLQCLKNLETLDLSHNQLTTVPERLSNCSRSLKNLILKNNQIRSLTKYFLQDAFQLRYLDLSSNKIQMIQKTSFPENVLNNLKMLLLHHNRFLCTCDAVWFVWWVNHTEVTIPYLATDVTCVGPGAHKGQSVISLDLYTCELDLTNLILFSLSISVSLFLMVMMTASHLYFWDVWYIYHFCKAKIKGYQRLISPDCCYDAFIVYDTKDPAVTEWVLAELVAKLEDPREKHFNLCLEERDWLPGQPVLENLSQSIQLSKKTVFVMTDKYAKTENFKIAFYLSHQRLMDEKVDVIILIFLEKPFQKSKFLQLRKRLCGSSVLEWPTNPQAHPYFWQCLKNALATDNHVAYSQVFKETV
In words: Agonistic activity of compounds on hTLR7 (HEK-Blue hTLR7 cells, QUANTI-Blue OD650). The conditions noted are these: 24 h. As for the experimental part:
(§3) In this example, the agonistic activity of the compounds of the present application on hTLR7 (human Toll-like receptor 7) and hTLR8 (human Toll-like receptor 8) was assessed; the induction activity of the compounds on human PBMCs for TNF-α and IFN-α production was assessed in human PBMCs (human peripheral blood mononuclear cells).
(§4) All compounds were formulated in DMSO into 30 mM concentrated stock solutions and preserved at 4° C. […] HEK-Blue hTLR7 and HEK-Blue hTLR8 cell lines were purchased from InvivoGen, and human PBMCs were purchased from Shanghai Saily Biotechnology Co., Ltd. (Cat. No. XFB—HP100B).
(§5) Compound dilution: The compounds of the present application were diluted with DMSO, for example, to about 15 mM. The reference compounds were diluted and then sequentially added to cell plates. […] DMSO was added to the negative control wells at 0.2 μL/well, and the reference compounds were added to the positive control wells. The final concentration of DMSO was 0.2%.
(§6) Cell plating: When an 80% confluence of HEK Blue hTLR7&8 cells in the culture flask was observed under a microscope, the culture medium was discarded, 10 mL of detection medium was added, and the cells were pipetted to form a single-cell suspension. The cells were counted using a cell counter and diluted to 500,000 cells/mL. The cells were plated at 100 μL/50,000 cells/well in the 96-well plates containing the compounds. The compounds and cells were co-incubated in an incubator at 37° C. with 5% CO2 for 24 h.
(§7) Compound activity detection: 20 μL of cell supernatant was taken from each well and added to an experimental plate containing QUANTI-Blue™ reagent at 180 μL/well. The plate was incubated at 37° C. for 1 h, and then the absorbance at 650 nm (OD650) was measured on the multimode microplate reader Flexstation III.
(§8) The EC50 values of the compounds were calculated.

In assay [4] the target is T2, hTLR8 (human Toll-like receptor 8) (Homo sapiens, UniProt Q9NR97).
T2 construct: host or cells: HEK-Blue hTLR8 cells
T2 sequence (Q9NR97 27-1041): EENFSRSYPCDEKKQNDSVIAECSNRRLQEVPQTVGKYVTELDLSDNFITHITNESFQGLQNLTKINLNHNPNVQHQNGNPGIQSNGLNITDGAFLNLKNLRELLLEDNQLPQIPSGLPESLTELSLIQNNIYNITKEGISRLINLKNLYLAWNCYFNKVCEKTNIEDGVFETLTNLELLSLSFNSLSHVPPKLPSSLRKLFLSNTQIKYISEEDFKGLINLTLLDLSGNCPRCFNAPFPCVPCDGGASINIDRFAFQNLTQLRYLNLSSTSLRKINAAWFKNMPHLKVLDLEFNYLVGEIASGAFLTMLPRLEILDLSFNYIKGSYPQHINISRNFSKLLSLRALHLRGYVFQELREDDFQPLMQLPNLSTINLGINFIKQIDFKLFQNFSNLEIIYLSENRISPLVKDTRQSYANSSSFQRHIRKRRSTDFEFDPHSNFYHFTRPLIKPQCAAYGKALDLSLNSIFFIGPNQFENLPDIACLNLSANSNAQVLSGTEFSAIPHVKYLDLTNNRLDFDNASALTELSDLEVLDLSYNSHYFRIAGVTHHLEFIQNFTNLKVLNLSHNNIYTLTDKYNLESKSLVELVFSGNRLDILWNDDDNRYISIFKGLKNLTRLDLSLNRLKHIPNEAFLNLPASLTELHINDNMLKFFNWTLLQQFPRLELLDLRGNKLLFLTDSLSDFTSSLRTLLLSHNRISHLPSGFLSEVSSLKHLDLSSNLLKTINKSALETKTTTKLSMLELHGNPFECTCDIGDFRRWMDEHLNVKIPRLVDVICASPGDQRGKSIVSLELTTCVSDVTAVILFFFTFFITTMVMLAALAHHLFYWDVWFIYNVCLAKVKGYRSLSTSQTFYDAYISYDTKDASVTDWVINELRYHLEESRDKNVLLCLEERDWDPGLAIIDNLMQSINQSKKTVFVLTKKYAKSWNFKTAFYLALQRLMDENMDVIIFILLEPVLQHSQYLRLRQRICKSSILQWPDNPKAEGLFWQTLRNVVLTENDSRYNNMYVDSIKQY
The experiment in a line: Agonistic activity of compounds on hTLR8 (HEK-Blue hTLR8 cells, QUANTI-Blue OD650). The following applies: 24 h. As for the experimental part: as §3, §4, §5, §6, §7, §8

In assay [5] the target is T3, hTLR8 (Homo sapiens, UniProt Q9NR97).
T3 construct: tissue Biocytogen; host or cells: spleen cells from hTLR8-C57BL/6 (hTLR8 humanized, knock-in) mice
T3 sequence (Q9NR97 27-1041): T2 sequence (Q9NR97 27-1041)
In words: Stimulation of spleen cells from hTLR8-C57BL/6 mice with TLR8 agonists (ELISA).

For orientation: EC50 means the concentration at which the effect is half-maximal. High values mean a less potent agent, low ones a more potent agent.

As for `CCCCc1nc2c(N)nc3cccc(CCCCCN)c3c2s1` [compound 14], the concentration giving a half-maximal response (EC50) turned out to be 0.147 µM in assay [1] (PBMC), 0.074 µM in assay [2] (PBMC), 0.191 µM in assay [3] and 0.0116 µM in assay [4].
For `CCCN(Cc1ccc(N)cc1)C(=O)C1=Cc2ccc(-c3cncc(CO)c3)cc2N=C(N)C1` [compound 10] the same measures were 0.375 µM, 0.045 µM, 6.26 µM and 0.0332 µM.
Turning to `CCCN(CCC)C(=O)C1=Cc2ccc(-c3ccc(C(=O)N4CCCC4)cc3)cc2N=C(N)C1` [VTX-2337, reference compound], the 50% effective concentration (EC50) in assay [1] (PBMC) was 1.01 µM; in assay [2] (PBMC) it was above 7.5 µM; in assay [3], above 30 µM; in assay [4], 0.0211 µM.
On to `CCOCc1nc2c(N)nc3cccc(CCCCCN)c3c2s1` [compound 18], for which the 50% effective concentration (EC50) in assay [3] was 1.06 µM; in assay [4] it was 0.26 µM.
For the molecule `CCCCc1nc2c(N)nc3cccc(CCCCN)c3c2s1` [compound 16], the EC50 in assay [1] (PBMC) was determined as 0.117 µM; in assay [2] (PBMC), 0.451 µM; in assay [3], 0.434 µM; in assay [4], 0.0552 µM.
For the molecule `CCOCc1nc2c(N)nc3ccccc3c2n1CC(C)(C)O` [R848, reference compound], the EC50 was 2.33 µM in assay [1] and 0.202 µM in assay [2].
For `CCCCc1nc2c(N)nc3cccc(CCCCN)c3c2o1` [compound 20], the half-maximal effective concentration (EC50) in assay [3] was found to be 0.0733 µM; in assay [4], 0.00652 µM.
As for `CCCCc1nc2c(N)nc3cccc(CCCCCN)c3c2o1` [compound 19], the EC50 in assay [3] is 0.149 µM; in assay [4] it was 0.0113 µM.
For the molecule `CCCN(Cc1ccc(N)cc1)C(=O)C1=Cc2ccc(-c3ccc(C(=O)N4CC[C@@H](O)C4)cc3)cc2N=C(N)C1` [compound 11], the 50% effective concentration (EC50) in assay [1] (PBMC) came to 0.303 µM; in assay [2] (PBMC), 0.453 µM.
Take `CCCC[C@](C)(CO)Nc1nc(N)nc2cc(F)cnc12` [GS-9688]: the “secretion of TNFα and IFNγ by spleen cells” value in assay [5] is “increase in the secretion of TNFα and IFNγ”.
For `CCCCc1nc2c(N)nc3cccc(CCCCCCN)c3c2s1` [compound 17], the EC50 in assay [1] (PBMC) was found to be 0.132 µM; in assay [2] (PBMC), 0.05 µM; in assay [3], 0.192 µM; in assay [4], 0.173 µM.
As to `CCCN(Cc1ccc(N)cc1)C(=O)C1=Cc2ccc(-c3ccc4c(c3)C(=O)OC4)cc2N=C(N)C1` [compound 12], the EC50 in assay [1] (PBMC) came out at 0.351 µM; in assay [2] (PBMC), 0.191 µM; in assay [3], 1.67 µM; in assay [4], 0.432 µM.
For `CCCN(Cc1cccc(N)c1)C(=O)C1=Cc2ccc(-c3cncc(CO)c3)cc2N=C(N)C1` [compound 13], the 50% effective concentration (EC50) in assay [3] was 14.4 µM; in assay [4], 0.0608 µM.

The record behind these values is patent publication US20250345443A1, “PHARMACEUTICAL COMPOUND AND USE THEREOF” (DUALITY BIOLOGICS (SUZHOU) CO., LTD., priority 2022, published 2025).
